Measurements published in ChEMBL document CHEMBL1201862, “PubChem BioAssay data set” (2004).
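Cultured in 96-well plates, cells were exposed to test compound for 48 hours across five concentrations. GI50: concentration for 50% inhibition of growth.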 The source made the active and inactive calls. No stated cut-off is given here; in the data, active = GI50 up to about 1.1 µM and inactive = higher.

Key:
Experiment in all cases: growth of human tumour cells (NCI), 48 h
SK-MEL-28 = system: SK-MEL-28
UACC-62 = system: UACC-62
SK-OV-3 = system: SK-OV-3
HOP-62 = system: HOP-62
UO-31 = system: UO-31
HOP-92 = system: HOP-92
NCI-H460 = system: NCI-H460
OVCAR-3 = system: OVCAR-3
U-251 = system: U-251
K562 = system: K562
SK-MEL-2 = system: SK-MEL-2
IGROV-1 = system: IGROV-1
MDA-MB-435 = system: MDA-MB-435
NCI-H522 = system: NCI-H522
HT-29 = system: HT-29
OVCAR-5 = system: OVCAR-5
BT-549 = system: BT-549
KM12 = system: KM12
SK-MEL-5 = system: SK-MEL-5
T47D = system: T47D

CCOC(=O)N1CCN(Cc2cc(=O)n3cc(C)ccc3n2)CC1
GI50 (SK-MEL-28): > 100 µM (inactive) | GI50 (UACC-62): > 100 µM (inactive) | GI50 (SK-OV-3): > 100 µM (inactive) | GI50 (HOP-62): > 100 µM (inactive) | GI50 (UO-31): > 100 µM (inactive) | GI50 (HOP-92): > 100 µM (inactive) | GI50 (NCI-H460): > 100 µM (inactive) | GI50 (OVCAR-3): > 100 µM (inactive) | GI50 (U-251): > 100 µM (inactive) | GI50 (K562): > 100 µM (inactive) | GI50 (SK-MEL-2): > 100 µM (inactive) | GI50 (IGROV-1): > 100 µM (inactive) | GI50 (MDA-MB-435): > 100 µM (inactive) | GI50 (NCI-H522): > 100 µM (inactive) | GI50 (HT-29): > 100 µM (inactive) | GI50 (OVCAR-5): > 100 µM (inactive) | GI50 (BT-549): > 100 µM (inactive) | GI50 (KM12): > 100 µM (inactive)

CC[C@@]1(O)C(=O)OCc2c1cc1n(c2=O)Cc2cc3cc(OC)ccc3nc2-1
GI50 (SK-MEL-28): 0.372 µM (active) | GI50 (UACC-62): 0.00244 µM (active) | GI50 (SK-OV-3): 0.0498 µM (active) | GI50 (HOP-62): 0.00562 µM (active) | GI50 (UO-31): 0.0333 µM (active) | GI50 (HOP-92): 0.0114 µM (active) | GI50 (SK-MEL-5): 0.0211 µM (active) | GI50 (NCI-H460): 0.00607 µM (active) | GI50 (OVCAR-3): 0.435 µM (active) | GI50 (U-251): 0.00407 µM (active) | GI50 (K562): 0.123 µM (active) | GI50 (SK-MEL-2): 0.16 µM (active) | GI50 (IGROV-1): 0.106 µM (active) | GI50 (MDA-MB-435): 0.0441 µM (active) | GI50 (NCI-H522): 0.0246 µM (active) | GI50 (HT-29): 0.0268 µM (active) | GI50 (OVCAR-5): 0.0452 µM (active) | GI50 (BT-549): 0.0308 µM (active) | GI50 (KM12): 0.139 µM (active)

COC(=O)C(Cc1nc2ccccc2nc1O)/C(=N\NC(C)(C)C)C(=O)Nc1c(C)cc(Br)cc1C (stereo unspecified)
GI50 (SK-MEL-28): 20 µM (inactive) | GI50 (UACC-62): 19 µM (inactive) | GI50 (SK-OV-3): 50.5 µM (inactive) | GI50 (HOP-62): 35 µM (inactive) | GI50 (UO-31): 50.4 µM (inactive) | GI50 (HOP-92): 18.7 µM (inactive) | GI50 (SK-MEL-5): 18.3 µM (inactive) | GI50 (NCI-H460): 30.1 µM (inactive) | GI50 (OVCAR-3): > 10 µM (inactive) | GI50 (U-251): 19.2 µM (inactive) | GI50 (K562): 29.4 µM (inactive) | GI50 (SK-MEL-2): 31 µM (inactive) | GI50 (IGROV-1): 36.3 µM (inactive) | GI50 (NCI-H522): 15.1 µM (inactive) | GI50 (HT-29): 30.5 µM (inactive) | GI50 (OVCAR-5): > 100 µM (inactive) | GI50 (KM12): 41 µM (inactive)

O=C1N=C2N=C(c3ccc(Cl)cc3)N(c3ccc(Cl)cc3)N2Sc2ccccc21
GI50 (SK-MEL-28): > 100 µM (inactive) | GI50 (UACC-62): > 100 µM (inactive) | GI50 (SK-OV-3): > 100 µM (inactive) | GI50 (HOP-62): 36.1 µM (inactive) | GI50 (UO-31): 32.4 µM (inactive) | GI50 (HOP-92): 86.5 µM (inactive) | GI50 (SK-MEL-5): > 100 µM (inactive) | GI50 (NCI-H460): 81.3 µM (inactive) | GI50 (OVCAR-3): > 100 µM (inactive) | GI50 (U-251): 23.5 µM (inactive) | GI50 (K562): > 100 µM (inactive) | GI50 (SK-MEL-2): > 100 µM (inactive) | GI50 (IGROV-1): > 100 µM (inactive) | GI50 (NCI-H522): > 100 µM (inactive) | GI50 (HT-29): > 100 µM (inactive) | GI50 (OVCAR-5): > 100 µM (inactive) | GI50 (KM12): 83.9 µM (inactive)

Cc1cc2c(cc1Cl)Sc1n[nH]c(=O)n1S2(=O)=O
GI50 (SK-MEL-28): > 100 µM (inactive) | GI50 (UACC-62): > 100 µM (inactive) | GI50 (SK-OV-3): > 100 µM (inactive) | GI50 (HOP-62): > 100 µM (inactive) | GI50 (UO-31): > 100 µM (inactive) | GI50 (HOP-92): 54.3 µM (inactive) | GI50 (SK-MEL-5): 35.8 µM (inactive) | GI50 (NCI-H460): > 100 µM (inactive) | GI50 (OVCAR-3): 95.5 µM (inactive) | GI50 (U-251): > 100 µM (inactive) | GI50 (K562): > 100 µM (inactive) | GI50 (IGROV-1): > 100 µM (inactive) | GI50 (MDA-MB-435): > 100 µM (inactive) | GI50 (NCI-H522): 87.5 µM (inactive) | GI50 (HT-29): > 100 µM (inactive) | GI50 (OVCAR-5): > 100 µM (inactive) | GI50 (BT-549): > 100 µM (inactive) | GI50 (KM12): > 100 µM (inactive)

CC[n+]1cnc(N)c2c(-c3ccc(Cl)cc3)cn(-c3ccc(C)cc3)c21
GI50 (SK-MEL-28): 9.33 µM (inactive) | GI50 (UACC-62): 11.4 µM (inactive) | GI50 (SK-OV-3): 15.4 µM (inactive) | GI50 (HOP-62): 16.8 µM (inactive) | GI50 (UO-31): 9.93 µM (inactive) | GI50 (HOP-92): 11.2 µM (inactive) | GI50 (T47D): 12 µM (inactive) | GI50 (SK-MEL-5): 10.3 µM (inactive) | GI50 (NCI-H460): 15.7 µM (inactive) | GI50 (OVCAR-3): 9.38 µM (inactive) | GI50 (U-251): 11.9 µM (inactive) | GI50 (K562): 5.33 µM (inactive) | GI50 (SK-MEL-2): 18.7 µM (inactive) | GI50 (IGROV-1): 13.1 µM (inactive) | GI50 (MDA-MB-435): 11.5 µM (inactive) | GI50 (NCI-H522): 15.5 µM (inactive) | GI50 (HT-29): 4.36 µM (inactive) | GI50 (OVCAR-5): 15.8 µM (inactive) | GI50 (KM12): 15.8 µM (inactive)

O=C(CSc1nc2ccc(I)cc2c(=O)n1Cc1ccccc1)NN1C(=O)CSC1c1ccccc1 (stereo unspecified)
GI50 (SK-MEL-28): 30.2 µM (inactive) | GI50 (UACC-62): 19.3 µM (inactive) | GI50 (SK-OV-3): 24.1 µM (inactive) | GI50 (HOP-62): 18.6 µM (inactive) | GI50 (HOP-92): 19.4 µM (inactive) | GI50 (T47D): 28.1 µM (inactive) | GI50 (SK-MEL-5): 18.5 µM (inactive) | GI50 (NCI-H460): 18 µM (inactive) | GI50 (OVCAR-3): 16.1 µM (inactive) | GI50 (U-251): 29.6 µM (inactive) | GI50 (K562): 26.5 µM (inactive) | GI50 (SK-MEL-2): 24.3 µM (inactive) | GI50 (IGROV-1): 22.6 µM (inactive) | GI50 (MDA-MB-435): 27.2 µM (inactive) | GI50 (NCI-H522): 15.6 µM (inactive) | GI50 (HT-29): 35 µM (inactive) | GI50 (OVCAR-5): 53.8 µM (inactive) | GI50 (KM12): 22.5 µM (inactive)
